Literature values as cited in patent US9061061B2, “Method of treating dysglycemia and glucose excursions” (ORX PHARMACEUTICAL CORPORATION, priority 2008, dated 2015).

Conditions: single 850 mg tablet

SMILES: CN(C)C(=N)N=C(N)N [metformin]
- lower peak plasma concentration (Cmax) with food compared to fasting: ~40%
- prolongation of time to peak plasma concentration (Tmax) with food: 35 min
